# “Also recorded” adds a separate entry of the source.
# Tests used:
# [1] = Liposome efflux assay (Fe3+ liposomal efflux, cell-free iron efflux); assay type: biochemical; conditions: for iron mobilization capacity / cell-free iron transport, effect of deuteration: deuterated vs protio compound, cell-free iron efflux, 37 °C, 40 min; for iron transport capability at higher concentrations: Fe3+ liposomal efflux, 50-150 μM, compared with hinokitiol or Tri-Methyl
# Protocol: After evaporation under a stream of nitrogen, films were placed under hi-vacuum for 18 hours to ensure quantitative solvent removal. […] LUVs were subjected to size exclusion chromatography, using a ~20 cm column of Sephadex® G-50 Medium resin that was hydrated in liposome outside buffer (600 mM sodium ascorbate, 50 mM MES/TRIS pH 7.0).
# Determination of total phosphorous was performed utilizing the Bartlett Assay. Briefly, the LUV suspension was diluted 10-fold in liposome outside buffer, then 10 μL of this solution was placed in three 7 mL vials along with 10 μL of liposome outside buffer for background. […] The samples were then allowed to fully cool and diluted using 3.9 mL of Milli-Q water. […] of 2.5% w/v ammonium molybdate was then added, then the samples were vortexed, then […] of 10% w/v ascorbic acid was added. The samples were then re-vortexed, capped, and heated at 100 °C for seven minutes. The samples were allowed to fully cool then read at A820 and compared to a phosphorous standard curve to determine the total quantity of phosphorous.
# 16 mL of liposome suspension was created with the following components: […] of ferrozine solution (100× stock, 50 mM in liposome outside buffer), LUV suspension (to a final concentration of 1 mM phosphorous), and liposome outside buffer up to 16 mL. […] of liposome suspension was then added to a 96 well plate (NUM) using a multichannel pipettor. The plate was then placed in a plate reader and equilibrated at 37 °C for 5 minutes, then read for a baseline measurement. Following this equilibration, compound was added at the designated concentrations (40× stock in DMSO) using a multichannel pipettor, and the plate was then incubated at 37 °C for 40 min. Reads were taken every minute at A562 and the plate mixed at 220 rpm. Total iron efflux was determined via […]-iron complex signal. These experiments were performed in triplicate, with a minimum of two biological replicates.
# [2] = tested on: mitoferrin 1 (MFRN1−) deficient cells and animals; conditions: cited from earlier work
# [3] = tested on: divalent metal transporter 1 (DMT1−) deficient cells and animals; conditions: cited from earlier work
# [4] = Complex formation with iron / crystallographic data; assay type: physicochemical
# [5] = Dynamic light scattering (aggregation); assay type: physicochemical; conditions: for aggregation tendency: aqueous media, in words
# Protocol: Dynamic light scattering was performed on a Malvern Zetasizer Nano using disposable cuvettes. […] Compound at the specified concentration (from 1000× in DMSO), as well as equimolar FeCl3 (1000× in 0.1 M HCl) were added to this buffer. After addition, these compounds were vortexed for 30 sec, sonicated for one min, then further vortexed for 30 sec before a five-minute equilibration in the Zetasizer at 37 °C. All standard parameters were used, with each graph representing a minimum of thirty 10 second measurements. For count rate analysis, the raw count rate was utilized, accounting for any differences in attenuator position between samples.
# [6] = tested on: ferroportin 1 (FPN1−) deficient cells and animals; conditions: cited from earlier work
# [7] = background; cited from earlier work
# shDMT1-Caco-2 monolayer = experiment: Iron transport in differentiated shDMT1(-Caco-2) monolayers; assay type: cell-based
# [8] = compared with hinokitiol; cited from earlier work
compound,measurement,setting,value
"[2H]C([2H])([2H])C([2H])([2H])C([2H])([2H])C([2H])([2H])c1cccc(=O)c(O)c1 [4 nBu-d9, 2-hydroxy-4-(butyl-d9)cyclohepta-2,4,6-trien-1-one]","iron mobilization capacity / cell-free iron transport, effect of deuteration",[1],maintains transport levels at concentrations when the parent compound suffers from limiting higher order aggregation
same,"iron mobilization capacity / cell-free iron transport, effect of deuteration",[1]; listed as 4-n-buytl-(d9)-tropolone,extends transport window
same,concentration of compound up to which noticeable transmembrane transport of iron is demonstrated,"[1]; liposome efflux assay, before dropping to baseline",75 µM
CC(C)c1cccc(=O)c(O)c1 [hinokitiol],restoration of iron homeostasis,[2],restores iron homeostasis
same,restoration of iron homeostasis,[3],restores iron homeostasis
same,complex formation with Fe(III),[4],forms a 3:1 complex with Fe(III)
same,iron transport capability at higher concentrations,[1],begins to aggregate
same,aggregation tendency,[5],predisposed at higher concentrations to form higher-order aggregates; also recorded: formation of higher-order aggregates in aqueous media
same,aggregation tendency,[5]; listed as Hinokitiol,highly aggregative
same,restoration of iron homeostasis,[6],restores iron homeostasis
same,complex formation with iron,[7],reversibly forming a 3:1 complex with iron
same,iron transport / mobilization,shDMT1-Caco-2 monolayer,"effectively mobilizes iron at low-to-intermediate concentrations; also recorded: at higher concentrations, a substantial decrease in transmembrane mobilizing activity was observed"
"[2H]C([2H])([2H])C([2H])(c1cccc(=O)c(O)c1)C([2H])([2H])[2H] [hinokitiol-d7, 2-hydroxy-4-(isopropyl-d7)-cyclohepta-2,4,6-trien-1-one]",iron transport capability at higher concentrations,[1],significantly greater iron transport capability at higher concentrations (50-150 μM) when compared to hinokitiol
same,aggregation by dynamic light scattering,"[5]; 20-100 μM with equimolar iron, pH 7.0, 37 °C",aggregates less via lesser photon deflection counts and particle size
CC(C)c1ccc(O)c(=O)cc1 [GT],"iron mobilization capacity / cell-free iron transport, effect of deuteration",[1],no deuteration effect on cell-free iron transport
same,"aggregation, previously shown",[8],less aggregation
Cc1cc(C)c(O)c(=O)c(C)c1 [Tri-Methyl],aggregation tendency,[5],aggregates less
"CCCCc1cccc(=O)c(O)c1 [4 nBu, 2-hydroxy-4-butylcyclohepta-2,4,6-trien-1-one]",concentration of compound at which noticeable transport ceases,"[1]; liposome efflux assay, due to higher order aggregation",40 µM
same,aggregation tendency,[5],highly aggregating
